Test results as given in PMC9764287, “Multivalent Fucosides Targeting β-Propeller Lectins from Lung Pathogens with Promising Anti-Adhesive Properties” (ACS Chemical Biology, 2022).
Several values for one entry are separate records, joined by “and”; a condition that tells them apart may be missing. Identical values can stand only once. Like-named read-outs stand apart in the source and are kept apart here.

Assays:
[1] = biological target: T1, BambL (Burkholderia ambifaria, UniProt Q0B4G1); test: Isothermal titration calorimetry (ITC); format: binding; settings: for Kd: 20 mM Tris, 100 mM NaCl, pH 8.0; for -TΔS (kJ/mol) BambL binding / ΔH (kJ/mol) BambL binding / N BambL binding (Table S3): Table S3, ITC 25 °C; for N BambL binding (Table S3): as printed in SI, one third of the per-trimer N of Table 2
T1 sequence (Q0B4G1 1-87): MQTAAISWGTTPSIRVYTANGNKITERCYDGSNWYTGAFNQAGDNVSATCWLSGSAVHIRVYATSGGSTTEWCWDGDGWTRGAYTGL
Excerpt: (§1) Due to the time-consuming measurements and the high quantity of protein necessary in some techniques, we selected only the four inhibitors with the largest size (compounds with PEGn=4 and hPG-20) for further biophysical analysis. More in-depth studies were continued by isothermal titration calorimetry (ITC) and bio-layer interferometry (BLI), which confirmed the trends previously seen by FP (Table 2). In the ITC experiments, the fungal lectins bound their monovalent reference with a stoichiometry (N) value around […], which is consistent with the number of high-affinity binding sites per monomer. With the value close to […] obtained for BambL, the reference experiments are indicative of active recombinant proteins and correlate well with previous findings in the literature.[39],[41] […] This calls for a likely mixed chelate-aggregative binding, whose precise architecture cannot be determined based solely on the compound/protein ratio.
(§2) 1.2 I sotherm al ti trati on c al ori m etry
(§3) Protein targets were pl ace d i n t he sample cell at concentrations ranging between 50 an d 8.5 μM at 25 °C. […]
Ta b le S3. Microcalorimetry data relative to B am bL binding.

[2] = biological target: T2, FleA (Aspergillus fumigatus, UniProt Q4WW81); test: Isothermal titration calorimetry (ITC); format: binding; settings: for Kd: 20 mM Tris, 100 mM NaCl, pH 8.0; for N stoichiometry FleA ITC: ratio of compound per FleA monomer (six binding sites); for -TΔS (kJ/mol) FleA binding / ΔH (kJ/mol) FleA binding: Table S1, ITC 25 °C
T2 construct: 6xHis (TEV-cleavable) (N, cleaved yes); made in house
T2 sequence (Q4WW81 whole entry): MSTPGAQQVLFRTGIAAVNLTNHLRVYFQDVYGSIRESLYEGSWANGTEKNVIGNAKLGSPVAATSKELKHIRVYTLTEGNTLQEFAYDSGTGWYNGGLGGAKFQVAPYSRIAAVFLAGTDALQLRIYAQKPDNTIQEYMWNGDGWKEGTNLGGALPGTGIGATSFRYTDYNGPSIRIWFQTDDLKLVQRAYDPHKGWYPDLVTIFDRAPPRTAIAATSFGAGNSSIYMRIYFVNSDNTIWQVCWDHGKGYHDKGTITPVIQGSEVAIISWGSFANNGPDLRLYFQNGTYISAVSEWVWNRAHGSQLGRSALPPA
Excerpt: as §1, §2, §3
Ta b le S1. Microcalorimetry data relative to Fl e A binding.

[3] = biological target: T2, FleA; design: method as in PMID 25760594; settings: SPR experiment; read-out: Kd of binding for FleA; cited from earlier work
[4] = biological target: T3, SapL1 (Scedosporium apiospermum, UniProt A0A084FYP2); test: Isothermal titration calorimetry (ITC); format: binding; settings: for N stoichiometry SapL1 ITC: ratio of compound per SapL1 monomer (six binding sites); for -TΔS (kJ/mol) SapL1 binding / ΔH (kJ/mol) SapL1 binding: Table S2, ITC 25 °C
T3 sequence (A0A084FYP2 entry or part of it): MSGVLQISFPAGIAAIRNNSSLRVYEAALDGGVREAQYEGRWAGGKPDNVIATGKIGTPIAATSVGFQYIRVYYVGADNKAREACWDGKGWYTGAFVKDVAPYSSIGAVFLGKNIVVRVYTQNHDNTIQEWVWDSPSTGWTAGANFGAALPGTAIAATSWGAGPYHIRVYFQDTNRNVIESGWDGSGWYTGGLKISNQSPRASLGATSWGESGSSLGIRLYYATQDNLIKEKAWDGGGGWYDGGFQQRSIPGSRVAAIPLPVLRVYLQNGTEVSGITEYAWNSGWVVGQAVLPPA
Excerpt: as §1, §2, §3
Ta b le S2. Microcalorimetry data relative to S apL1 binding. […]

[5] = biological target: T1, BambL; test: Competitive fluorescence polarization (FP) assay; format: binding; settings: Fuc-FITC probe 6 nM, protein 100 nM, average over two independent experiments, read-out: IC50 (nM) ± SD BambL
Excerpt: (§4) With the targeted lectins in hand, we could screen the inhibitory properties of the synthesized compounds by a competitive binding assay based on fluorescence polarization (FP). […] In general, results confirmed the power of multivalency as IC50 values improved from the micromolar range for the monosaccharide reference to the nanomolar range for the multivalent counterparts (Table 1).
(§5) 1.1 F l uoresc en c e pol ari z ati on c om peti ti ve assay
(§6) The fluorescen t ligan d Fu c -FI TC (F i g ur e S 1 ) w as pr e par e d f r om com poun d 2a followin g a protocol reported in literature.1 T y pi cal l y , a s t ock s ol uti on of pr ote i n (f i n al con ce n tr ati on 100 n M) an d Fu c -FI TC (final concentration 6 n M) w e r e adde d to 3 -f ol d serial dilution s of testin g compoun ds in dupl i cat e s on a bl ack 9 6 well microtiter plate (CO S T A R TM 96) . […] The starting concentration for the monovalent com poun d w as 3 mM an d 5 -fold dilution s were used in this case. All compon en ts were dissolved in the same buffer (20 mM Tris, 100 mM N aCl , pH 8.0). After addition of the reagents, the microtiter plates were s hak e d f or 1 h at room temperature i n t he dar k . […] A fluorescen ce in ten sity spectral scan of the multivalent compounds alone was also performed to confirm no interference with the analysis. […] The point of inflection was used to determine the IC50 value of each experiment. […]
(§7) Fi gu re S1 . The structure of the fluorescent probe Fu c -FI TC.

[6] = biological target: T2, FleA; test: Competitive fluorescence polarization (FP) assay; format: binding; settings: Fuc-FITC probe 6 nM, protein 100 nM, average over two independent experiments, read-out: IC50 (nM) ± SD FleA
Excerpt: as §4, §5, §6, §7

[7] = biological target: T3, SapL1; test: Competitive fluorescence polarization (FP) assay; format: binding; settings: read-out: IC50 (nM) ± SD SapL1, Fuc-FITC probe 6 nM, protein 100 nM, average over two independent experiments
Excerpt: as §4, §5, §6, §7

[8] = biological target: T1, BambL; test: Bio-layer interferometry (BLI), biotinylated lectin on streptavidin sensor; format: binding; settings: read-out: Kobs (nM) BambL BLI; 25 °C; protein immobilized
Excerpt: (§8) Applying different techniques to study the mechanism of multivalent binding is always advisable to better understand the process at a molecular level.[44] BLI is a biophysical technique where the target protein can be immobilized on the surface of the sensor, so problems related to aggregation should be eliminated. This technology has in fact been applied to the study of lectin-multivalent glycoconjugate interactions in a reliable, low-cost, and fast way.[45] […] A discrepancy of this nature is not too surprising considering that in the BLI experiment, one of the binding partners is immobilized, so its Kd’s might be better labeled as Kobs. Different techniques measure inherently different properties. It has been pointed out in a recent publication that drastically different outcomes can be obtained from solution to surface experimental approaches and that these variations are highly dependent on the accessibility of the binding motif.[46] The arrangement of glycans and the linker used for immobilization have shown to influence affinity on the glycan array setting. Therefore, it is likely that also the arrangement of a protein on the surface can have a similar effect when the setting is reversed.[46],[47] The difference in affinities between ITC and BLI for the fungal versus the bacterial lectins may relate to their orientation on the surface. The proteins were immobilized to the surface of a streptavidin-coated sensor through biotinylation of their lysine residues. BambL has only one lysine per monomer, opposite to the binding surface, while FleA and SapL1 have several, some of which close to the binding sites. It is plausible that this would influence the binding of the lectins to the sensor and the exposure of their sites. […] In contrast, all binding sites and modalities are accessible in solution during ITC.
(§9) 1.4 B i ol ayer i n terferom etry
(§10) The mixture was incubate d for 30 minutes with stirring. […] Biotinylated protein at 100nM concentrations were loaded on the sensor. […]

[9] = biological target: T2, FleA; test: as above; format: binding; settings: 25 °C; protein immobilized; read-out: Kobs (nM) FleA BLI
Excerpt: as §8, §9, §10

[10] = biological target: T3, SapL1; test: as above; format: binding; settings: read-out: Kobs (nM) SapL1 BLI; 25 °C; protein immobilized
Excerpt: as §8, §9, §10

[11] = biological target: FleA, SapL1, and BambL; design: method as in PMID 24340081, PMID 34373510, PMID 22170069; settings: range over FleA, read-out: Kd of α-methyl fucose; cited from earlier work
[12] = tested on: adhesion of Af293.1 spores to A549 cells; test: Adhesion assay of A. fumigatus conidia to lung epithelial cells; format: cell-based, Aspergillus fumigatus
Experimental: In our adhesion assay, A549 cells were cultured in a well-plate until a confluent layer was obtained and then challenged with A. fumigatus conidia in the presence or absence of FleA inhibitors. After incubation and washing to remove unbound spores from the cell layer, imaging was performed by confocal microscopy (Figure 4). The detection of fungi was facilitated by the availability of Af293.1, a strain originally derived from a clinical isolate and genetically modified to constitutively express red fluorescent protein.[53] Cell nuclei were stained with Hoechst fluorescent dye for visualization.[54] Cell and spore counts were calculated by ImageJ software and used to express adhesion efficiencies.
Figure 5 Adhesion of Af293.1 to A459. The black bars refer to the conditions where compounds and spores were pre-incubated 1 h prior infection. The white-striped bars refer to the conditions where compounds were added 1 h after infection. *Significant difference to the control (chi-square test, followed by Bonferroni’s multiple comparison test).
[…] Unbound conidia were removed carefully by washin g 4 times with m e di a (D ME M + 10% F BS). […] Fluorescence emission of Hoechst was de te cte d us i n g the 400- 600 nm spectral band and red fluorescence emission of R F P was detected with the 560- 700 n m s pe ctr al ban d. […]

Compound	Kd ([1]; 25 °C) [nM]	-TΔS (kJ/mol) BambL binding [1] [kJ/mol]	ΔH (kJ/mol) BambL binding [1] [kJ/mol]	N BambL binding (Table S3) [1]	Kd ([2]; 25 °C) [nM]	N stoichiometry FleA ITC ([2]; 25 °C)	-TΔS (kJ/mol) FleA binding [2] [kJ/mol]	ΔH (kJ/mol) FleA binding [2] [kJ/mol]	Kd [3] [nM]	N stoichiometry SapL1 ITC ([4]; 25 °C)	-TΔS (kJ/mol) SapL1 binding [4] [kJ/mol]	ΔH (kJ/mol) SapL1 binding [4] [kJ/mol]	IC50 [5] [nM]	IC50 [6] [nM]	further results
C[C@@H]1O[C@@H](OCCN=[N+]=[N-])[C@@H](O)[C@H](O)[C@@H]1O [2a]	2140 ± 80	17 ± 1	-50 ± 1	1.81 ± 0.01	97600 ± 300	4.1 ± 0.02	16 ± 4	-39 ± 4	–	–	–	–	–	–	–
C[C@@H]1OC(O)[C@@H](O)[C@H](O)[C@@H]1O (stereo partly drawn) [L-Fuc]	–	–	–	–	–	–	–	–	209000	–	–	–	–	–	–
C[C@@H]1O[C@@H](OCCNC(=O)CCOCCOCCOCCOCCNC(=O)Cc2ccc(SCc3c(CSc4ccc(CC(=O)NCCOCCOCCOCCOCCC(=O)NCCO[C@@H]5O[C@@H](C)[C@@H](O)[C@@H](O)[C@@H]5O)cc4)c(CSc4ccc(CC(=O)NCCOCCOCCOCCOCCC(=O)NCCO[C@@H]5O[C@@H](C)[C@@H](O)[C@@H](O)[C@@H]5O)cc4)c(CSc4ccc(CC(=O)NCCOCCOCCOCCOCCC(=O)NCCO[C@@H]5O[C@@H](C)[C@@H](O)[C@@H](O)[C@@H]5O)cc4)c(CSc4ccc(CC(=O)NCCOCCOCCOCCOCCC(=O)NCCO[C@@H]5O[C@@H](C)[C@@H](O)[C@@H](O)[C@@H]5O)cc4)c3CSc3ccc(CC(=O)NCCOCCOCCOCCOCCC(=O)NCCO[C@@H]4O[C@@H](C)[C@@H](O)[C@@H](O)[C@@H]4O)cc3)cc2)[C@@H](O)[C@H](O)[C@@H]1O [hexa-4]	4.7 ± 0.9	249 ± 10	-296 ± 9	0.35 ± 0.01	115 ± 4	0.8 ± 0.02 and 0.8	206 ± 6	-246 ± 6	–	0.72 ± 0.02 and 0.72	155 ± 12	-199 ± 13	31 ± 3	148 ± 6	β affinity enhancement (Kd,mono/Kd,multi) SapL1 ITC ([4]; 25 °C): 2735; β/v affinity enhancement per single sugar SapL1 ITC ([4]; 25 °C, v = valency): 456; Kd ([4]; read-out: Kd (nM) SapL1 ITC, 25 °C, 20 mM Tris, 100 mM NaCl, pH 8.0): 25 nM and 24.9 nM; β affinity enhancement (Kd,mono/Kd,multi) BambL ITC ([1]; 25 °C): 455; N stoichiometry BambL ITC ([1]; 25 °C, ratio of compound per BambL trimer (six binding sites)): 1.05; β/v affinity enhancement per single sugar BambL ITC ([1]; 25 °C, v = valency): 76; β affinity enhancement (Kd,mono/Kd,multi) FleA ITC ([2]; 25 °C): 849; β/v affinity enhancement per single sugar FleA ITC ([2]; 25 °C, v = valency): 142; IC50 [7]: 43 ± 6 nM; Kd [8]: 1.6 ± 0.1 nM; Kd [9]: 4.1 ± 0.1 nM; Kd [10]: 1.2 ± 0.2 nM
CO[C@@H]1O[C@@H](C)[C@@H](O)[C@@H](O)[C@@H]1O [α-Me-Fuc, α-methyl fucose, reference compound]	–	–	–	–	–	–	–	–	–	3.52 ± 0.13	27 ± 2	-63 ± 11	1400 ± 200	111000	Kd [11]: 1000 to 200000 nM; anti-adhesive effect ([12]; 0.1 mM, spores preincubated with compound, MOI 2, Figure S3): ineffective; concentration needed to elicit any measurable anti-adhesive properties ([12]; control experiment, preincubation): 1 mM
CC(=O)N[C@H]1C(O)O[C@H](CO)[C@@H](O[C@@H]2O[C@@H](C)[C@@H](O)[C@@H](O)[C@@H]2O)[C@@H]1O (stereo partly shown) [αFuc(1–4)GlcNAc]	–	–	–	–	–	–	–	–	63000	–	–	–	–	–	–
